Data reported in PubChem BioAssay AID328 (DTP/NCI, 2004).
Several values for one entry are separate records, joined by “and”; a condition that tells them apart may be missing. Equal values may be shown once. Toxic doses and inconclusive results are not listed.

Test system: BDF1 mice, P388 leukemia ip, median survival T/C
Assay: NCI In Vivo Anticancer Drug Screen. Data for tumor model P388 Leukemia (intraperitoneal) in B6D2F1 (BDF1) mice
Settings: endpoint: median survival time, higher = longer survival
Summary of the method: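 Vehicle-dosed animals serve as the reference; survival of compound-dosed, tumour-implanted mice is divided by it.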

[1] = dose: 100.0 mg/kg/injection, schedule: Q01DX009 (ip), vehicle: saline
[2] = dose: 12.5 mg/kg/injection, schedule: Q01DX009 (ip), vehicle: saline with Tween-80
[3] = dose: 25.0 mg/kg/injection, schedule: Q01DX009 (ip), vehicle: saline with Tween-80
[4] = dose: 50.0 mg/kg/injection, schedule: Q01DX009 (ip), vehicle: saline with Tween-80
[5] = dose: 50.0 mg/kg/injection, schedule: Q04DX003 (ip), vehicle: saline with Tween-80
[6] = dose: 100.0 mg/kg/injection, schedule: Q01DX009 (ip), vehicle: saline with Tween-80
[7] = dose: 100.0 mg/kg/injection, schedule: Q04DX003 (ip), vehicle: saline with Tween-80
[8] = dose: 200.0 mg/kg/injection, schedule: Q04DX003 (ip), vehicle: saline with Tween-80
[9] = dose: 400.0 mg/kg/injection, schedule: Q04DX003 (ip), vehicle: saline with Tween-80
[10] = dose: 50.0 mg/kg/injection, schedule: Q01DX005 (ip), vehicle: saline with Tween-80
[11] = dose: 100.0 mg/kg/injection, schedule: Q01DX005 (ip), vehicle: saline with Tween-80
[12] = dose: 50.0 mg/kg/injection, schedule: Q01DX009 (ip), vehicle: Klucel (hydroxypropylcellulose) (HPC)
[13] = dose: 100.0 mg/kg/injection, schedule: Q01DX009 (ip), vehicle: Klucel (hydroxypropylcellulose) (HPC)

## N[C@@H](Cc1ccc(N(CCCl)CCCl)cc1)C(=O)O
dose: 0.5 mg/kg/injection, schedule: Q01DX009 (ip), vehicle: saline
  T/C: 167 % of control
dose: 0.5 mg/kg/injection, schedule: Q01DX010 (ip), vehicle: saline
  T/C: 227 % of control
dose: 1.0 mg/kg/injection, schedule: Q01DX009 (ip), vehicle: saline
  T/C: 245 % of control and 188 % of control
dose: 1.0 mg/kg/injection, schedule: Q01DX010 (ip), vehicle: saline
  T/C: 277 % of control
dose: 2.0 mg/kg/injection, schedule: Q01DX009 (ip), vehicle: saline
  T/C: 237 % of control and 254 % of control
dose: 2.0 mg/kg/injection, schedule: Q01DX010 (ip), vehicle: saline
  T/C: 300 % of control
dose: 2.5 mg/kg/injection, schedule: Q04DX003 (ip), vehicle: water
  T/C: 205 % of control
dose: 3.6 mg/kg/injection, schedule: Q01DX001 (ip), vehicle: saline
  T/C: 150 % of control and 181 % of control
dose: 4.0 mg/kg/injection, schedule: Q01DX009 (ip), vehicle: saline
  T/C: 113 % of control
dose: 4.0 mg/kg/injection, schedule: Q01DX010 (ip), vehicle: saline
  T/C: 113 % of control
dose: 4.0 mg/kg/injection, schedule: Q04DX003 (ip), vehicle: Klucel (hydroxypropylcellulose) (HPC)
  T/C: 236 % of control
dose: 6.0 mg/kg/injection, schedule: Q01DX001 (ip), vehicle: saline
  T/C: 167 % of control and 172 % of control
dose: 10.0 mg/kg/injection, schedule: Q01DX001 (ip), vehicle: Klucel (hydroxypropylcellulose) (HPC)
  T/C: 227 % of control and 245 % of control
dose: 12.5 mg/kg/injection, schedule: Q01DX001 (ip), vehicle: Klucel (hydroxypropylcellulose) (HPC)
  T/C: 240 % of control and 279 % of control
dose: 15.0 mg/kg/injection, schedule: Q01DX001 (ip), vehicle: Klucel (hydroxypropylcellulose) (HPC)
  T/C: 295 % of control and 298 % of control
dose: 17.5 mg/kg/injection, schedule: Q01DX001 (ip), vehicle: Klucel (hydroxypropylcellulose) (HPC)
  T/C: 286 % of control and 318 % of control
dose: 20.0 mg/kg/injection, schedule: Q01DX001 (ip), vehicle: Klucel (hydroxypropylcellulose) (HPC)
  T/C: 254 % of control and 259 % of control
dose: 40.0 mg/kg/injection, schedule: Q04DX003 (ip), vehicle: water
  T/C: 91 % of control and 96 % of control

## COC1OC(CNC(=O)N(C)N=O)C(O)C(O)C1O (stereo unspecified)
[1]
  T/C: 164 % of control
dose: 200.0 mg/kg/injection, schedule: Q01DX009 (ip), vehicle: saline
  T/C: 240 % of control
dose: 266.0 mg/kg/injection, schedule: Q04DX003 (ip), vehicle: saline
  T/C: 154 % of control
dose: 400.0 mg/kg/injection, schedule: Q01DX009 (ip), vehicle: saline
  T/C: 309 % of control
dose: 400.0 mg/kg/injection, schedule: Q04DX003 (ip), vehicle: saline
  T/C: 162 % of control
dose: 600.0 mg/kg/injection, schedule: Q04DX003 (ip), vehicle: saline
  T/C: 216 % of control

## Cc1nc(Cl)c(C(N)=O)nc1C
[2]
  T/C: 91 % of control
[3]
  T/C: 88 % of control and 94 % of control
[4]
  T/C: 97 % of control
[5]
  T/C: 113 % of control
[6]
  T/C: 90 % of control and 106 % of control
[7]
  T/C: 96 % of control
dose: 150.0 mg/kg/injection, schedule: Q01DX009 (ip), vehicle: saline with Tween-80
  T/C: 97 % of control
[8]
  T/C: 92 % of control
[9]
  T/C: 99 % of control

## O=c1oc(-c2ccc(C[n+]3ccc4ccccc4c3)cc2)nc2ccccc12
[10]
  T/C: 100 % of control
[11]
  T/C: 99 % of control
dose: 200.0 mg/kg/injection, schedule: Q01DX005 (ip), vehicle: saline with Tween-80
  T/C: 104 % of control

## CC(=O)Nc1c(Cl)cc2c(c1Cl)Cc1cc(N=Cc3ccc4c(c3)OCO4)ccc1-2
dose: 25.0 mg/kg/injection, schedule: Q01DX009 (ip), vehicle: Klucel (hydroxypropylcellulose) (HPC)
  T/C: 90 % of control
[12]
  T/C: 90 % of control
[13]
  T/C: 86 % of control

## CCOC1OCN(C)CC1(C)C (stereo unspecified)
[2]
  T/C: 115 % of control
[3]
  T/C: 120 % of control
dose: 66.0 mg/kg/injection, schedule: Q01DX009 (ip), vehicle: saline
  T/C: 115 % of control
[1]
  T/C: 119 % of control
dose: 150.0 mg/kg/injection, schedule: Q01DX009 (ip), vehicle: saline
  T/C: 154 % of control

## OCc1ccn2c1C(O)CC2 (stereo unspecified)
dose: 12.5 mg/kg/injection, schedule: Q01DX009 (ip), vehicle: other
  T/C: 112 % of control
dose: 25.0 mg/kg/injection, schedule: Q01DX009 (ip), vehicle: other
  T/C: 102 % of control
dose: 25.0 mg/kg/injection, schedule: Q01DX009 (ip), vehicle: saline
  T/C: 115 % of control
dose: 50.0 mg/kg/injection, schedule: Q01DX009 (ip), vehicle: other
  T/C: 100 % of control
dose: 50.0 mg/kg/injection, schedule: Q01DX009 (ip), vehicle: saline
  T/C: 165 % of control
dose: 100.0 mg/kg/injection, schedule: Q01DX009 (ip), vehicle: other
  T/C: 100 % of control
[1]
  T/C: 240 % of control and 100 % of control

## COc1cc(-c2ccc(NC(=O)NC3CC3)c(OC)c2)ccc1NC(=O)NC1CC1
[10]
  T/C: 89 % of control
[11]
  T/C: 91 % of control

## NC(CS/C(Cl)=C/Cl)C(=O)O (stereo unspecified)
dose: 1.5 mg/kg/injection, schedule: Q01DX009 (ip), vehicle: saline
  T/C: 95 % of control
dose: 3.0 mg/kg/injection, schedule: Q01DX009 (ip), vehicle: saline
  T/C: 100 % of control and 109 % of control
dose: 6.0 mg/kg/injection, schedule: Q01DX009 (ip), vehicle: saline
  T/C: 92 % of control and 95 % of control
dose: 7.4 mg/kg/injection, schedule: Q01DX009 (ip), vehicle: saline
  T/C: 109 % of control
dose: 11.0 mg/kg/injection, schedule: Q01DX009 (ip), vehicle: saline
  T/C: 113 % of control
dose: 12.0 mg/kg/injection, schedule: Q01DX009 (ip), vehicle: saline
  T/C: 90 % of control
dose: 16.0 mg/kg/injection, schedule: Q04DX003 (ip), vehicle: saline
  T/C: 120 % of control
dose: 17.0 mg/kg/injection, schedule: Q01DX009 (ip), vehicle: saline
  T/C: 152 % of control
dose: 25.0 mg/kg/injection, schedule: Q04DX003 (ip), vehicle: saline
  T/C: 120 % of control
dose: 27.0 mg/kg/injection, schedule: Q01DX009 (ip), vehicle: saline
  T/C: 168 % of control
dose: 35.0 mg/kg/injection, schedule: Q04DX003 (ip), vehicle: saline
  T/C: 104 % of control

## CCCCCCCC[N+](CC)(CC)CCOC(=O)C(C1CCCC1)C1CCCC1
dose: 0.9 mg/kg/injection, schedule: Q04DX003 (ip), vehicle: saline
  T/C: 90 % of control
dose: 1.32 mg/kg/injection, schedule: Q01DX001 (ip), vehicle: saline
  T/C: 87 % of control
dose: 1.8 mg/kg/injection, schedule: Q04DX003 (ip), vehicle: saline
  T/C: 109 % of control
dose: 2.65 mg/kg/injection, schedule: Q01DX001 (ip), vehicle: saline
  T/C: 100 % of control
dose: 3.6 mg/kg/injection, schedule: Q01DX009 (ip), vehicle: saline
  T/C: 110 % of control
dose: 3.6 mg/kg/injection, schedule: Q04DX003 (ip), vehicle: saline
  T/C: 109 % of control
dose: 5.3 mg/kg/injection, schedule: Q01DX001 (ip), vehicle: saline
  T/C: 91 % of control
dose: 5.3 mg/kg/injection, schedule: Q04DX003 (ip), vehicle: saline
  T/C: 90 % of control

## COc1cc2cc[n+](C)c(Cc3ccccc3)c2cc1OC
[2]
  T/C: 100 % of control
[12]
  T/C: 159 % of control
[5]
  T/C: 113 % of control
[7]
  T/C: 90 % of control

## NC(CCCC(=O)O)P(=O)(O)O (stereo unspecified)
[12]
  T/C: 112 % of control
[13]
  T/C: 110 % of control
dose: 200.0 mg/kg/injection, schedule: Q01DX009 (ip), vehicle: Klucel (hydroxypropylcellulose) (HPC)
  T/C: 113 % of control

## O=C1N=C(C(F)(F)F)N=C1c1[nH]c(C(F)(F)F)nc1O
[4]
  T/C: 111 % of control
[6]
  T/C: 102 % of control
[7]
  T/C: 100 % of control
dose: 200.0 mg/kg/injection, schedule: Q01DX009 (ip), vehicle: saline with Tween-80
  T/C: 102 % of control
[8]
  T/C: 102 % of control
dose: 400.0 mg/kg/injection, schedule: Q01DX009 (ip), vehicle: saline with Tween-80
  T/C: 116 % of control
[9]
  T/C: 98 % of control
